Laboratory results taken from EP0274444A2, “Solution inbuprofen complexes, compositions and processes for preparing the same” (priority 1987, dated 1988).

Test: pH of the resulting solutions (pH meter with combination electrode)
Type: physicochemical
Settings: Mole Ratio Cyclodextrin:Ibuprofen 0:1 (ibuprofen alone, saturated solution)
Procedure: The pH of each solution was measured using an Orion Model 701 pH meter with a combination electrode.

Structure (SMILES): CC(C)Cc1ccc(C(C)C(=O)O)cc1 (stereo not shown) [Ibuprofen, ibuprofen]
- pH: 4.56
